BindingDB's records for doi:10.1021/jm0204035 (Glaxosmithkline, 2003)

Legend:
[1] = target: Trans-2-enoyl-ACP reductase II (Streptococcus pneumoniae, UniProt Q9FBC5); assay: Enzyme Inhibition Assay; settings: 30 °C
Procedure: (§1) Assays were carried out in half-area, 96-well microtiter plates. Compounds were evaluated in assay mixtures containing components specific for each enzyme. Inhibitors were varied over the range 0.01-10 uM. The consumption of NAD(P)H was monitored for 20 min at 30 °C by following the change in absorbance at 340 nm. IC50 values were estimated from a fit of the initial velocities to a standard equation.

[2] = target: T1, Enoyl-[acyl-carrier-protein] reductase [NADH] FabI (Escherichia coli (strain K12), UniProt P0AEK4); assay: Enzyme Inhibition Assay; settings: pH 6.5; 30 °C
T1 sequence (P0AEK4 whole entry): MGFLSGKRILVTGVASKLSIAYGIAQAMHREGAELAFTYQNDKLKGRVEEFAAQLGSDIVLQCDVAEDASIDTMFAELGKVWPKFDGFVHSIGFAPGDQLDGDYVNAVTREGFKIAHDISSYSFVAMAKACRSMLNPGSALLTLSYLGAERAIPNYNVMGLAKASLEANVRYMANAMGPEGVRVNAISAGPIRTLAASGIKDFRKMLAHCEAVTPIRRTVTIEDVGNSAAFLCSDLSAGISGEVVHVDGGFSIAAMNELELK
Procedure: as §1

Trans-2-enoyl-ACP reductase II, sequence (Q9FBC5 whole entry): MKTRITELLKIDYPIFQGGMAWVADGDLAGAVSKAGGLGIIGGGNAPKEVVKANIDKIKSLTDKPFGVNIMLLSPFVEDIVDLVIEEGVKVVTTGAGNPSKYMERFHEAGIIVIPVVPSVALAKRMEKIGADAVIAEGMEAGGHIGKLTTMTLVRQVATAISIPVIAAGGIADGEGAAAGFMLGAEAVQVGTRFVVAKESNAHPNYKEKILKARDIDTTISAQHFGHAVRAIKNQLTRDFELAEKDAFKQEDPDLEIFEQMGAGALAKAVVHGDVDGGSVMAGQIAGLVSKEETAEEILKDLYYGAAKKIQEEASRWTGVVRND

SMILES | IC50 [1] [µM] | IC50 [2] [µM]
Oc1cc(Cl)ccc1Oc1ccc(Cl)cc1Cl | > 30 | –
Cc1cccc2c(CN(C)C(=O)/C=C/c3cnc4c(c3)CCC(=O)N4)c(C)n(C)c12 [(2E)-N-methyl-3-(7-oxo-5,6,7,8-tetrahydro-1,8-naphthyridin-3-yl)-N-[(1,2,7-trimethyl-1H-indol-3-yl)methyl]prop-2-enamide] | > 30 | < 0.07
Cc1[nH]c2ccccc2c1CN(C)C(=O)/C=C/c1cnc2c(c1)CCC(=O)N2 [(2E)-N-methyl-N-[(2-methyl-1H-indol-3-yl)methyl]-3-(7-oxo-5,6,7,8-tetrahydro-1,8-naphthyridin-3-yl)prop-2-enamide] | – | < 0.06
Cc1c(CN(C)C(=O)/C=C/c2cnc3c(c2)CCC(=O)N3)c2ccccc2n1C [(E)-N-(1,2-Dimethyl-1H-indol-3-ylmethyl)-N-methyl-3-(7-oxo-5,6,7,8-tetrahydro-1,8-naphthyridin-3-yl)acrylamide] | > 30 | –
